Laboratory results reported in patent US20240400547A1, “2,6-PIPERIDINEDIONE COMPOUND AND APPLICATION THEREOF” (MEDSHINE DISCOVERY INC., priority 2021, published 2024).
Where a name gives a salt, the structure may show the parent alone.

Columns and labels:
TMD-8 = experiment: Antiproliferative effect in lymphoma cell line TMD-8 (CellTiter-Glo); type: cell-based; conditions: TMD-8, 5 days; for IC50: Homo sapiens, TMD8, 120 h
Description: Experimental purpose: The experiment aims to evaluate the inhibitory effects of the test compounds on cell proliferation in the diffuse large B-cell lymphoma (DLBCL) cell lines OCI-LY10 and TMD-8.
The tumor cell lines were cultured in a 37° C., 5% CO2 incubator under the above culture conditions. Regular passage, and cells in logarithmic growth phase were taken for plating.
• (1) Cells were stained with trypan blue and viable cells were counted. • (2) The cell concentration was adjusted to an appropriate concentration.
• (3) 100 μL of cell suspension per well was added to the culture plate as shown above. • (4) The culture plate was cultured overnight in a 37° C., 5% CO2 incubator with 100% relative humidity.
Preparation of stock solution storage plate with 1000 times the initial concentration of the compound: The compound was serially diluted with DMSO from the highest concentration to the lowest concentration. The solution was prepared as needed each time.
4. Preparation of 1000× Compound Working Solution and Cell Treatment with Compounds • (1) Preparation of the working solution with 5 times the initial concentration of the compound: For 3-fold dilution of the compound, 30 μL of the compound from a stock solution at 1000-fold concentration was taken, and 20 μL of DMSO was added to the subsequent wells. Then, 10 μL was transferred from one concentration to the next in sequence. For 5-fold dilution of the compound, 30 μL of the compound from a stock solution at 1000-fold concentration was taken, and 24 μL of DMSO was added to the subsequent wells. Then, 6 μL was transferred from one concentration to the next in sequence. 20 μL of DMSO was added to the vehicle control. The 1000-fold concentrated compound was diluted 200 times with culture medium, i.e., 1 μL of the 1000-fold diluted compound is added to 199 μL of culture medium, and the mixture was homogenized using a pipette. • (2) Compound addition: 25 μL of the 5-fold compound solution was added to the cell culture plate. • (3) The 96-well cell plate was returned to the incubator to culture OCI-LY10 (with either 3-fold or 5-fold dilution, incubated with compounds added for 5 days) and TMD-8 (with either 3-fold or 5-fold dilution, incubated with compounds added for 5 days).
The following steps were performed according to the instructions of Promega CellTiter-Glo luminescent cell viability assay kit (Promega-G7573). • (1) CellTiter-Glo buffer was melted and brought to room temperature. • (2) CellTiter-Glo substrate was brought to room temperature. • (3) CellTiter-Glo working solution was prepared by adding 10 mL of CellTiter-Glo buffer to a vial of CellTiter-Glo substrate to dissolve the substrate. • (4) The mixture was slowly vortexed and shaken to be fully dissolved. • (5) The cell culture plate was taken out and left for 30 minutes to equilibrate to room temperature. • (6) 60 μL of CellTiter-Go working solution was added per well (equal to half the volume of cell culture medium per well). The cell plate was wrapped in aluminum foil to be protected from light. • (7) The culture plate was shaken on an orbital shaker for 2 minutes to induce cell lysis. • (8) The culture plate was left at room temperature for 10 minutes to stabilize the luminescent signal. • (9) The luminescent signal was detected on a 2104 EnVision plate reader.
The inhibition rate (IIR) of the test compound was calculated using the following formula: IR (%)=(1−RLU compound/RLU vehicle control)*100%. The inhibition rates of compounds at different concentrations were calculated in Excel, and then GraphPad Prism software was used to plot inhibition curves and calculate relevant parameters, including minimum inhibition rate, maximum inhibition rate, and IC50.

[1] = Pharmacokinetic evaluation in beagles; type: in vivo, beagle; conditions: beagles (fed)
Description: In this study, male beagles were selected as test animals, and LC/MS/MS method was used to quantify plasma concentrations of the test compound intravenously injected or intragastrically administered to beagles at different time points, so as to evaluate the pharmacokinetic profile of the compounds of the present disclosure in beagles.
Beagle (male, 7 to 10 kg, Beijing Marshall Biotechnology Co., Ltd.).
• A clear solution of the test compound was slowly injected into beagle via the peripheral vein (fed) (vehicle: […]/10% solutol/85% H2O or 5% DMSO/10% solutol/85% H2O), or intragastrically administered to beagles (fed). For intravenous injection, 0.5 mL blood was collected via the saphenous vein puncture at 0.083, 0.25, 0.5, 1, 2, 4, 6, 8, and 24 h after administration, and placed in a EDTA-2K anticoagulant tube. The mixture was centrifuged at 3200 g for 10 minutes at 2 to 8° C., and the supernatant was separated. For oral administration, 0.5 mL blood was collected via the saphenous vein puncture at 0.083, 0.25, 0.5, 1, 2, 4, 6, 8, and 24 h after administration, and placed in a EDTA-2K anticoagulant tube. The mixture was centrifuged at 3200 g for 10 minutes at 2 to 8° C., and the supernatant was separated. Plasma drug concentrations were determined by LC-MS/MS method, and relevant pharmacokinetic parameters were calculated using Phoenix WinNonlin 6.3 pharmacokinetic software with non-compartmental model linear-log trapezoidal method.

[2] = intragastric administration 5 mg/kg

Row | SMILES | IC50 (TMD-8) [nM] | Maximum inhibition rate (TMD-8) [%] | Area under drug-time curve (0-inf) [1, 2] [µM·h] | Peak concentration [1, 2] [µM] | Time to peak concentration [1, 2] [h] | Area under drug-time curve (0-inf) ([1]; intravenous injection 0.5 mg/kg) [µM·h] | Vd ([1]; male, beagle, dog, plasma, intravenous injection 0.5 mg/kg, read-out: Apparent volume of distribution) [L/kg]
1 | O=C1CCC(c2coc3cc(NC(=O)CN4CCN(C[C@H]5CC[C@H](N6CC(NC(=O)c7coc(-c8ccnc(NCC9CC9)c8)n7)C(C(F)F)N6)CC5)CC4)ccc23)C(=O)N1 (stereo partly drawn) [Hydrochloride of WX002] | 92 | 83.31 | – | – | – | – | –
2 | O=C1CCC(c2noc3ccc4c(NC(=O)CN5CCN(C[C@H]6CC[C@H](n7cc(NC(=O)c8coc(-c9ccnc(NCC%10CC%10)c9)n8)c(C(F)F)n7)CC6)CC5)cccc4c23)C(=O)N1 (stereo partly drawn) [Hydrochloride of WX014] | 10.3 | 89.86 | 3.20 | 0.41 | 4.00 | 0.44 | 5.83
3 | O=C1CCC(c2coc3ccc4c(NC(=O)CN5CCN(C[C@H]6CC[C@H](n7cc(NC(=O)c8coc(-c9ccnc(NCC%10CC%10)c9)n8)c(C(F)F)n7)CC6)CC5)cccc4c23)C(=O)N1 (stereo partly drawn) [Trifluoroacetate of WX011] | 17 | 94.65 | – | – | – | – | –

Further molecules by falling IC50 (TMD-8), results first:

Row | IC50 (TMD-8) [nM] | SMILES | Maximum inhibition rate (TMD-8) [%] | Area under drug-time curve (0-inf) [1, 2] [µM·h] | Peak concentration [1, 2] [µM] | Time to peak concentration [1, 2] [h] | Area under drug-time curve (0-inf) ([1]; intravenous injection 0.5 mg/kg) [µM·h] | Vd ([1]; male, beagle, dog, plasma, intravenous injection 0.5 mg/kg, read-out: Apparent volume of distribution) [L/kg]
4 | 12.8 | O=C1CCC(c2noc3ccc4c(NC(=O)C(F)(F)C5CCN(CC6CCC(n7cc(NC(=O)c8coc(-c9ccnc(NCC%10CC%10)c9)n8)c(C(F)F)n7)CC6)CC5)cccc4c23)C(=O)N1 (stereo not drawn) [Hydrochloride of WX018] | 99.53 | – | – | – | – | –
5 | 8.65 | CC(C)(O)c1cc2nc([C@H]3CC[C@H](CN4CCN(CC(=O)Nc5ccc6c(C7CCC(=O)NC7=O)noc6c5)CC4)CC3)sc2cc1NC(=O)c1cccc(C(F)(F)F)n1 (stereo partly drawn) [Formate of WX026] | 99.92 | – | – | – | – | –
